# Measured values taken from patent US10899738B2 (THE REGENTS OF THE UNIVERSITY OF MICHIGAN, priority 2016, dated 2021).
# Molecular target: menin protein (Homo sapiens (Human), UniProt O00255)
# Experiment: biochemical
# Format: binding
# Settings: FP competitive binding; menin protein 4 nM, FAM-MM2 probe 2 nM; read-out: Menin Binding Affinity IC50
# Method: A fluorescence polarization (FP) competitive binding assay was used to determine the binding affinities of representative menin inhibitors. A FAM labeled fluorescent probe was designed and synthesized based on a MLL1 peptide (FAM-MM2). Equilibrium dissociation constant (Kd) value of FAM-MM2 to menin protein was determined from protein saturation experiments by monitoring the total fluorescence polarization of mixtures composed with the fluorescent probe at a fixed concentration and the protein with increasing concentrations up to full saturation. Serial dilutions of the protein were mixed with FAM-MM2 to a final volume of 200 μl in the assay buffer (PBS with 0.02% Bovine γ-Globulin and 4% DMSO. 0.01% Triton X-100 was added right before assays). Final FAM-MM2 concentration was 2 nM. Plates were incubated at room temperature for 30 minutes with gentle shaking to assure equilibrium.
# The IC50, see Table 3, and Ki values of representative Compounds of the Disclosure were determined in a competitive binding experiment. Mixtures of 5 μl of the tested compounds in DMSO and 195 μl of preincubated protein/probe complex solution in the assay buffer were added into assay plates which were incubated at room temperature for 30 minutes with gentle shaking. Final concentration of the menin protein was 4 nM, and final probe concentration is 2 nM. […] FP values were measured as described above. IC50 values were determined by nonlinear regression fitting of the competition curves.
# Sequence of menin protein (O00255 whole entry): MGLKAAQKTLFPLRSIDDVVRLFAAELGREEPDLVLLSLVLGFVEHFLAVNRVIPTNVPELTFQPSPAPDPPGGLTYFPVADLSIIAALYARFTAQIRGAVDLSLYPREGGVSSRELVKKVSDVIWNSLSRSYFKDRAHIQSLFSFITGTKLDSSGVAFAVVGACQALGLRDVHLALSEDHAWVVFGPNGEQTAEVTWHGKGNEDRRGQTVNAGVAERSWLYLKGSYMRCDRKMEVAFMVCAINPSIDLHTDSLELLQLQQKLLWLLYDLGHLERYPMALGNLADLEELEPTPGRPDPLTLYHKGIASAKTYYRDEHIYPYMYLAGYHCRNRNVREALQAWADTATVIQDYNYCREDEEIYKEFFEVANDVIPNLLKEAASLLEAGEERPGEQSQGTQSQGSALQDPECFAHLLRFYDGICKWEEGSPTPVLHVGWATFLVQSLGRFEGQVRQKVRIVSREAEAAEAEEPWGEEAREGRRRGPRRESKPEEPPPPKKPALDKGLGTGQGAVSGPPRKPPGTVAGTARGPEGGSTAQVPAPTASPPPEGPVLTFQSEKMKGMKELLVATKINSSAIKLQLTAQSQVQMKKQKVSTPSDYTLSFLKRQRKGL
row,Structure (SMILES),IC50
1,"CNC(=O)N[C@@H]1CCC[C@H]1C(CNC(=O)c1cocn1)(c1ccccc1)C1CCN(CC2CN(c3ccc(C#N)cc3)C2)CC1 (mixture of isomers) [compound 379, rac-N-(2-(1-((1-(4-cyanophenyl)azetidin-3-yl)methyl)piperidin-4-yl)-2-((1S,2R)-2-(3-methylureido)cyclopentyl)-2-phenylethyl)oxazole-4-carboxamide]",3.8 µM
2,"CN1Cc2cccc(F)c2C(C2CCCC2)(C2CCN(CCCOc3ccc(C#N)cc3)CC2)C1 (stereo not shown) [compound 31, 4-(3-(4-(4-cyclopentyl-5-fluoro-2-methyl-1,2,3,4-tetrahydroisoquinolin-4-yl)piperidin-1-yl)propoxy)benzonitrile]",0.037 µM
3,"N#Cc1ccc(OCCCN2CCC(C(CO)(c3ccccc3)C3CCCC3)CC2)cc1 (stereo not shown) [compound 37, 4-(3-(4-(1-cyclopentyl-2-hydroxy-1-phenylethyl)piperidin-1-yl)propoxy)benzonitrile]",0.449 µM
4,"CC(C)CC1(C2CCN(CCCOc3ccc(C#N)cc3)CC2)NCCc2ccccc21 (stereo not shown) [compound 242, 4-(3-(4-(1-isobutyl-1,2,3,4-tetrahydroisoquinolin-1-yl)piperidin-1-yl)propoxy)benzontrile]",2.1 µM
5,"O=S(=O)(c1ccc(N2CC(CN3CCC(C4(C5CCCC5)CN(CCF)Cc5ccccc54)CC3)C2)cc1)C1CC1 (stereo not shown) [compound 47, 4-cyclopentyl-4-(1-((1-(4-(cyclopropylsulfonyl)phenyl)azetidin-3-yl)methyl)piperidin-4-yl)-2-(2-fluoroethyl)-1,2,3,4-tetrahydroisoquinoline]",0.137 µM
6,"Cc1nccn1CC(c1ccccc1)(C1CCCC1)C1CCN(CCCOc2ccc(C#N)cc2)CC1 (stereo not shown) [compound 41, 4-(3-(4-(1-cyclopentyl-2-(2-methyl-1H-imidazol-1-yl)-1-phenylethyl)piperidin-1-yl)propoxy)benzonitrile]",0.166 µM
7,"N#Cc1ccc(NCCCN2CCC(C3(C4CCCC4)NCCc4ccccc43)CC2)cn1 (stereo not shown) [compound 59, 5-((3-(4-(1-cyclopentyl-1,2,3,4-tetrahydroisoquinolin-1-yl)piperidin-1-yl)propyl)amino)picolinonitrile]",2.3 µM
8,"CNC(=O)C[C@H]1CCC[C@@H]1C(C#N)(c1ccccc1)C1CCN(CC2CN(c3ccc(S(=O)(=O)c4ccncc4)cc3)C2)CC1 (mixture of isomers) [compound 340, rac-2-((1R,2S)-2-(cyano(phenyl)(1-((1-(4-(pyridin-4-ylsulfonyl)phenyl)azetidin-3-yl)methyl)piperidin-4-yl)methyl)cyclopentyl)-N-methylacetamide]",2.9 µM
9,"CC(=O)O[C@@H]1CCC[C@H]1C(C#N)(c1ccccc1F)C1CCN(CC2CN(c3ccc(S(=O)(=O)C4CC4)cc3)C2)CC1 (mixture of isomers) [compound 311, rac-(1R,2S)-2-(cyano(1-((1-(4-(cyclopropylsulfonyl)phenyl)azetidin-3-yl)methyl)piperidin-4-yl)(2-fluorophenyl)methyl) cyclopentyl acetate]",5.7 µM
10,"CC(=O)O[C@H]1CCC[C@@H]1C(C#N)(c1cccc(F)c1)C1CCN(CC2CN(c3ccc(S(=O)(=O)c4ccccc4)cc3)C2)CC1 (mixture of isomers) [compound 312, rac-(1S,2R)-2-(cyano(3-fluorophenyl)(1-((1-(4-(phenylsulfonyl)phenyl)azetidin-3-yl)methyl)piperidin-4-yl)methyl)cyclopentyl acetate]",0.013 µM
11,"N#Cc1ccc(OCCCN2CCC(C3(C4CCCC4)NCCc4ccccc43)C2)cc1 (stereo not shown) [compound 108, 4-(3-(3-(1-cyclopentyl-1,2,3,4-tetrahydroisoquinolin-1-yl)pyrrolidin-1-yl)propoxy)benzonitrile]",56.5 µM
12,"COC(=O)N[C@H]1CCC[C@@H]1C(C#N)(c1ccccc1)C1CCN(CC2CN(c3ccc(C(F)(F)F)cc3)C2)CC1 (mixture of isomers) [compound 401, methyl rac-((1S,2R)-2-(cyano(phenyl)(1-((1-(4-(trifluoromethyl)phenyl)azetidin-3-yl)methyl)piperidin-4-yl)methyl)cyclopentyl) carbamate]",0.089 µM
13,"N#Cc1ccc(N2CC(CN3CCC(C4(C5CCCC5)NCCc5ccccc54)CC3)C2)nc1 (stereo not shown) [compound 110, 6-(3-((4-(1-cyclopentyl-1,2,3,4-tetrahydroisoquinolin-1-yl)piperidin-1-yl)methyl)azetidin-1-yl)nicotinonitrile]",575 µM
14,"CC(=O)N1CCC[C@@H]1C(C#N)(c1ccccc1)C1CCN(CCCOc2ccc(C#N)cc2)CC1 (stereo partly drawn) [compound 331, 4-(3-(4-(((R)-1-acetylpyrrolidin-2-yl)(cyano)(phenyl)methyl)piperidin-1-yl)propoxy)benzonitrile]",23.3 µM
15,"O=S(=O)(c1ccccc1)c1ccc(N2CC(CN3CCC(C(CN4CCCC4)(C4=CCCC4)c4ccccc4)CC3)C2)cc1 (stereo not shown) [compound 355, 4-(1-(cyclopent-1-en-1-yl)-1-phenyl-2-(pyrrolidin-1-yl)ethyl)-1-((1-(4-(phenylsulfonyl)phenyl)azetidin-3-yl)methyl)piperidine]",0.045 µM
16,"N#Cc1ccc(OCCCN2CCC(C3(C4CCCC4)NCCc4cc(F)ccc43)CC2)cc1 (stereo not shown) [compound 30, 4-(3-(4-(1-cyclopentyl-6-fluoro-1,2,3,4-tetrahydroisoquinolin-1-yl)piperidin-1-yl)propoxy)benzonitrile]",0.439 µM
17,"N#Cc1ccc(OCCCN2CCC(CC3(C4CCCC4)NCCc4ccccc43)CC2)cc1 (stereo not shown) [compound 104, 4-(3-(4-((1-cyclopentyl-1,2,3,4-tetrahydroisoquinolin-1-yl)methyl)piperidin-1-yl)propoxy)benzonitrile]",32.7 µM
18,"CO[C@H]1CCC[C@H]1C(C#N)(c1ccccc1)C1CCN(CCCOc2ccc(C#N)cc2)CC1 (mixture of isomers) [compound 176, rac-4-(3-(4-(cyano((1S,2S)-2-methoxycyclopentyl)(phenyl)methyl)piperidin-1-yl)propoxy)benzonitrile]",140 µM
19,"CNC(=O)N[C@H]1CCC[C@@H]1C(CNC(=O)c1cocn1)(c1ccccc1)C1CCN(CC2CN(c3ccc(C#N)cc3)C2)CC1 (mixture of isomers) [compound 378, rac-N-(2-(1-((1-(4-cyanophenyl)azetidin-3-yl)methyl)piperidin-4-yl)-2-((1R,2S)-2-(3-methylureido)cyclopentyl)-2-phenylethyl)oxazole-4-carboxamide]",0.032 µM
20,"CNC(=O)O[C@H]1CCC[C@@H]1C(C#N)(c1ccccc1)C1CCN(CC2CN(c3ccc(C(C)(C)C)cc3)C2)CC1 (mixture of isomers) [compound 422, rac-(1S,2R)-2-((1-((1-(4-(tert-butyl)phenyl)azetidin-3-yl)methyl)piperidin-4-yl)(cyano)(phenyl)methyl) cyclopentyl methylcarbamate]",0.028 µM
21,"CO[C@H]1CCC[C@@H]1C(C#N)(c1ccccc1)C1CCN(CC2CN(c3ccc(S(C)(=O)=O)cc3)C2)CC1 (mixture of isomers) [compound 181, rac-2-((1R,2S)-2-methoxycyclopentyl)-2-(1-((1-(4-(methylsulfonyl)phneyl)azetidin-3-yl)methyl)piperidin-4-yl)-2-phenylacetonitrile]",18.1 µM
22,"CC(=O)N[C@@H]1CCC[C@H]1C1(C2CCN(CC3CN(c4ccc(S(=O)(=O)c5cnn(C)c5)cc4)C3)CC2)CNCc2ccccc21 (mixture of isomers) [compound 287, rac-N-((1R,2S)-2-(4-(1-((1-(4-((1-methyl-1H-pyrazol-4-yl)sulfonyl)phenyl)azetidin-3-yl)methyl)piperidin-4-yl)-1,2,3,4-tetrahydroisoquinolin-4-yl)cyclopentyl)acetamide]",0.247 µM
